Reference: US8901118B2, “Compounds and methods for kinase modulation, and indications therefor” (Plexxikon Inc., priority 2010, dated 2014)

Assays:
BCR-KIT BaF3 cells = target: T1, BCR-KIT BaF3 cells (Homo sapiens, UniProt P10721); test: BaF3 BCR-KIT cell proliferation assay (ATPlite); format: cell-based; details: read-out: Inhibition of Cell Proliferation IC50, BCR/BaF3 Kit
T1 construct: fused on or other part: P11274 (Breakpoint cluster region protein)
How it was run: (§1)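 Growth inhibition over 3 days at 37 °C; IC50 from ATPlite luminescence, 8 concentrations (1:3 steps, max 10 μM). BaF3 fusion lines were tested without IL-3.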

CYP2D6 = CYP2D6 (Homo sapiens, UniProt P10635); test: CYP2D6 inhibition (fluorescent substrate AMMC); format: in vitro ADME; details: read-out: Cyp IC50 2D6
How it was run: (§2)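 Compounds, serially diluted 1:1 over 10 points in NADPH-regenerating cofactor mix with 5% acetonitrile, were preincubated 10 min at 37 °C, then run with enzyme and substrate at 37 °C (CYP1A2 15 min; CYP2C9 45 min; CYP2C19, CYP2D6 30 min). Product fluorescence gave IC50s.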

SKNSH cells = test: SKNSH (human neuroblastoma) cell proliferation assay (ATPlite); format: cell-based; details: SK-N-SH, read-out: Inhibition of Cell Proliferation IC50, SKNSH
How it was run: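 SK-N-SH human neuroblastoma cells grown in RPMI with 10% FBS were pelleted, resuspended at 2×10^4 cells/mL, and plated at 3,000 cells per well (150 μL) in 96-well plates, then kept overnight at 37° C. in 5% CO2. Compounds in an 8-point 1:3 DMSO series were added as 0.75 μL aliquots.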

BCR-NTRK1 BaF3 cells = target: T2, BCR-NTRK1 BaF3 cells (Homo sapiens, UniProt P04629); test: BaF3 BCR-NTRK1 cell proliferation assay (ATPlite); format: cell-based; details: read-out: Inhibition of Cell Proliferation IC50, BCR/BaF3 TrkA
T2 construct: fused on or other part: P11274 (Breakpoint cluster region protein)
How it was run: as §1

CYP3A4(BFC) = CYP3A4(BFC) (Homo sapiens, UniProt P08684); test: CYP3A4(BFC) inhibition; format: in vitro ADME; details: CYP3A4, substrate BFC; read-out: Cyp IC50 3A4(BFC)
How it was run: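 Inhibition of human CYP3A4 with the BFC substrate was measured by fluorescence loss of the metabolized product. Compounds at 100 mM in DMSO were diluted 1 μL into 82 μL acetonitrile, then 11 μL into 204 μL cofactor mix with NADPH regeneration solutions, and serially diluted 1:1 to 10 points. Plates were incubated 30 min at 37° C and read at 409 ex/460 em to obtain IC50.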

BCR-NTRK3 BaF3 cells = target: T3, BCR-NTRK3 BaF3 cells (Homo sapiens, UniProt Q16288); test: BaF3 BCR-NTRK3 cell proliferation assay (ATPlite); format: cell-based; details: read-out: Inhibition of Cell Proliferation IC50, BCR/BaF3 TrkC
T3 construct: fused on or other part: P11274 (Breakpoint cluster region protein)
How it was run: as §1

CYP2C9 = CYP2C9 (Homo sapiens, UniProt P11712); test: CYP2C9 inhibition (fluorescent substrate MFC); format: in vitro ADME; details: read-out: Cyp IC50 2C9
How it was run: as §2

T2 sequence (P04629 510-781): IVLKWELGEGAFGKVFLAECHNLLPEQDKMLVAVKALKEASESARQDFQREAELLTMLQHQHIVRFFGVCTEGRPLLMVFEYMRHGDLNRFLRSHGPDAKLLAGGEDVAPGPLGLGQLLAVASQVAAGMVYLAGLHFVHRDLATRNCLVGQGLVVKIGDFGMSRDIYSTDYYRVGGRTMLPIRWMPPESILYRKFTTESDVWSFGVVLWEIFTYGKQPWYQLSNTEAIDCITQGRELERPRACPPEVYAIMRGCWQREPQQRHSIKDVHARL
CYP3A4(BFC), sequence (P08684 whole entry): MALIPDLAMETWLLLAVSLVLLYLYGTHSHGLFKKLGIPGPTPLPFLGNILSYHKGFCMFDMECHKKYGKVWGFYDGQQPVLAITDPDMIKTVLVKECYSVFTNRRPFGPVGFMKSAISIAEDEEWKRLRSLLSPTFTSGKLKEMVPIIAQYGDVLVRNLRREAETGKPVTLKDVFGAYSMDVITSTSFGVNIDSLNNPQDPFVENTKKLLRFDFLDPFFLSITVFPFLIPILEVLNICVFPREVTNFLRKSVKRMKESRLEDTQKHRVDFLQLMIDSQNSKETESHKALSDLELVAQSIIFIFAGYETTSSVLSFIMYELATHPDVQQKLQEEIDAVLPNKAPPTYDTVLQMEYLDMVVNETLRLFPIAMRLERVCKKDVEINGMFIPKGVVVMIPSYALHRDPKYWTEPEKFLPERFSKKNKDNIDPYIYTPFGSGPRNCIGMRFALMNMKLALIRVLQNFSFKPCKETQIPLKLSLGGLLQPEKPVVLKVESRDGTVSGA
CYP2C9, sequence (P11712 whole entry): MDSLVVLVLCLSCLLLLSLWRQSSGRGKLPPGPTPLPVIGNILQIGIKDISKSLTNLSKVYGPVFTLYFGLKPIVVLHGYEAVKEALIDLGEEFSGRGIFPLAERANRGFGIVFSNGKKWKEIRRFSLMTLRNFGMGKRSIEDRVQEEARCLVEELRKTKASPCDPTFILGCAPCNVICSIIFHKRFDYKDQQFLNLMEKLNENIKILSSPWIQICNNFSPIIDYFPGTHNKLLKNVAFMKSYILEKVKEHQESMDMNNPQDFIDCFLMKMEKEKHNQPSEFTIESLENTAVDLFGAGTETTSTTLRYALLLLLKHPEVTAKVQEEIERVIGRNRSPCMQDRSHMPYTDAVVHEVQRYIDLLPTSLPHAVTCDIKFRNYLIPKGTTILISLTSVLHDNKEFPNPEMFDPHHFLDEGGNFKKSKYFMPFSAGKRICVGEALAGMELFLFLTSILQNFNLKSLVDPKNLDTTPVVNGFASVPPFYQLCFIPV
T1 sequence (P10721 589-937): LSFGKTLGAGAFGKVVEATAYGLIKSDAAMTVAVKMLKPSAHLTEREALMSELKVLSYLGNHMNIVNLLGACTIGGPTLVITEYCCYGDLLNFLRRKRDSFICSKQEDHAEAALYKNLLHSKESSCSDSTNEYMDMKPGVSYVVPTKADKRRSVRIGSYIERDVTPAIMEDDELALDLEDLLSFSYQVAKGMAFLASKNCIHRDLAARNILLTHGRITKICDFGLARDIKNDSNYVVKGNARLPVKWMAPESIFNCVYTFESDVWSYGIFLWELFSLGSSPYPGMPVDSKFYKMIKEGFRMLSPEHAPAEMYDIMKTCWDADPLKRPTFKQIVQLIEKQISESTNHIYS
CYP2D6, sequence (P10635 whole entry): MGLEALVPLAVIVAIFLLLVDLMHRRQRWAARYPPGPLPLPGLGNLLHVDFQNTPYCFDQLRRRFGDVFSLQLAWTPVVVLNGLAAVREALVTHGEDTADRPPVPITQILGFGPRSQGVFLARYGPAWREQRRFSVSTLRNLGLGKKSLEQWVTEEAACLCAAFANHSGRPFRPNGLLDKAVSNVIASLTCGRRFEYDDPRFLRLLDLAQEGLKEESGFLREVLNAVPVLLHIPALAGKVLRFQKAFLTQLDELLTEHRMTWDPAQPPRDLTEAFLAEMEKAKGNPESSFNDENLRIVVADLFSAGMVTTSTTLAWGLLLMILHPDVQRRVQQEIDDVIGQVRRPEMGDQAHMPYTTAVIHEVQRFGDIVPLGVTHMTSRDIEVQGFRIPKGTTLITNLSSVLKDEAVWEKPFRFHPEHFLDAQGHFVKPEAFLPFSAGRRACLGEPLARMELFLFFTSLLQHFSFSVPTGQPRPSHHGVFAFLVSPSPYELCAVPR
T3 sequence (Q16288 whole entry, the tested form may be a part): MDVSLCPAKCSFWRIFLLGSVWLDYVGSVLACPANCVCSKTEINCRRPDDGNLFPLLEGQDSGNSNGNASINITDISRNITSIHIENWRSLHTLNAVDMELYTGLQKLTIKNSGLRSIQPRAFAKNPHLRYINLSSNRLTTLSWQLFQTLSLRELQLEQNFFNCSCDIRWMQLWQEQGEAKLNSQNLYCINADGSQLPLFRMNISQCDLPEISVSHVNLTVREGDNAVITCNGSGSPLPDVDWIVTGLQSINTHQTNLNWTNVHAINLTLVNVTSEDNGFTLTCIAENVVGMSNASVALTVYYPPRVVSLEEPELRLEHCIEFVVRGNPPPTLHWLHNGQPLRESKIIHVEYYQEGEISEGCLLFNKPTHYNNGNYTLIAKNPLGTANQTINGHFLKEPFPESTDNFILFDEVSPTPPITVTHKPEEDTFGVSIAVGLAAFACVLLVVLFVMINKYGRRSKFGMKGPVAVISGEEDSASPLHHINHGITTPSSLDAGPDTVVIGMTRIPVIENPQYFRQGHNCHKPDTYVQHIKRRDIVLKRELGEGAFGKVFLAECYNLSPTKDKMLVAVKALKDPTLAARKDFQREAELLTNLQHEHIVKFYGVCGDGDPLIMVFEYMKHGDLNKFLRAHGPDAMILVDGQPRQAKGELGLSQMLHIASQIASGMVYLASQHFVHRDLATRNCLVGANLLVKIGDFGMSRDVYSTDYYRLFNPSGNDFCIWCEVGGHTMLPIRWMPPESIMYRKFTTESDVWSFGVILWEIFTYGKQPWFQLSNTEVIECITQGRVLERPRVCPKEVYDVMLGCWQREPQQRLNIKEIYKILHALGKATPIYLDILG

SMILES	IC50 (BCR-KIT BaF3 cells) [nM]	IC50 (CYP2D6) [nM]	IC50 (SKNSH cells) [nM]	IC50 (BCR-NTRK1 BaF3 cells) [nM]	IC50 (CYP3A4(BFC)) [nM]	IC50 (BCR-NTRK3 BaF3 cells) [nM]	IC50 (CYP2C9) [nM]
CCc1ccc(Nc2ccc(Cc3c[nH]c4ncnc(OCCOC)c34)c(F)n2)cn1 [Compound P-4016, (6-Ethyl-pyridin-3-yl)-{6-fluoro-5-[4-(2-methoxy-ethoxy)-7H-pyrrolo[2,3-d]pyrimidin-5-ylmethyl]-pyridin-2-yl}-amine]	< 100	> 10000	> 1000	< 100	> 10000	< 10	> 10000
COc1ccc(Nc2ccc(C(=O)c3c[nH]c4ncc(C)cc34)c(F)n2)cn1 [Compound P-3040, [2-Fluoro-6-(6-methoxy-pyridin-3-ylamino)-pyridin-3-yl]-(5-methyl-1H-pyrrolo[2,3-b]pyridin-3-yl)-methanone]	> 1000	> 10000	> 1000	< 100	> 10000	< 10	> 10000
CCOc1ncnc2[nH]cc(C(=O)c3ccc(Nc4ccc(OC)nc4)nc3F)c12 [Compound P-4025, (4-Ethoxy-7H-pyrrolo[2,3-d]pyrimidin-5-yl)-[2-fluoro-6-(6-methoxy-pyridin-3-ylamino)-pyridin-3-yl]-methanone]	> 1000	> 10000	> 1000	< 100	< 5000	< 100	> 10000
COc1ccc(Nc2ccc(Cc3c[nH]c4ncnc(C)c34)c(F)n2)cn1 [Compound P-4002, [6-Fluoro-5-(4-methyl-7H-pyrrolo[2,3-d]pyrimidin-5-ylmethyl)-pyridin-2-yl]-(6-methoxy-pyridin-3-yl)-amine]	< 1000	> 10000	< 100	< 1000	> 10000	< 100	> 10000
CCn1cc(Nc2ccc(Cc3c[nH]c4ncnc(OCCOC)c34)c(F)n2)cn1 [Compound P-4014, (1-Ethyl-1H-pyrazol-4-yl)-{6-fluoro-5-[4-(2-methoxy-ethoxy)-7H-pyrrolo[2,3-d]pyrimidin-5-ylmethyl]-pyridin-2-yl}-amine]	> 1000	< 5000	> 10000	< 1000	5000 to 10000	< 1000	5000 to 10000
